ChEMBL document CHEMBL5620390, “A novel multifunctional mitochondrion-targeting NIR fluorophore probe inhibits tumour proliferation and metastasis through the PPARγ/ROS/β-catenin pathway” (Eur J Med Chem, 2023)
Calls of active or inactive are those of the source. No cut-off for these calls is given here.

Tests used:
[1] = Drug uptake in human A-375 cells assessed as fluorescence intensity at 2.5 uM incubated for 1 hr by confocal laser scanning microscopic analysis; type: ADME, cell-based; conditions: a-375, 1 h
[2] = Drug uptake in human MDA-MB-231 cells assessed as fluorescence intensity at 2.5 uM incubated for 1 hr by confocal laser scanning microscopic analysis; type: ADME, cell-based; conditions: mda-mb-231, 1 h
[3] = Drug uptake in mouse B16-F10 cells implanted in C57BL/6J mouse assessed as fluorescence aggregation in tumor at 3 mg/kg, iv measured after 3 to 6 hrs; type: ADME, organism-based; conditions: in vivo, time 3-6 hrs
[4] = Drug uptake in human A-375 cells mitochondria at 2.5 uM incubated for 45 mins by mito-tracker green dye based confocal laser scanning fluorescence microscopy analysis; type: ADME; conditions: a-375, 0.75 h
B16-F10 [5] = experiment: Induction of mitochondrial damage in mouse B16-F10 cells assessed as change in mitochondrial morphology at 2.5 uM incubated for 24 hrs by TEM analysis; type: functional, cell-based
B16-F10 [6] = experiment: Induction of mitochondrial damage in mouse B16-F10 cells assessed as mitochondrial swelling at 2.5 uM incubated for 24 hrs by TEM analysis; type: functional, cell-based
B16-F10 [7] = experiment: Induction of mitochondrial damage in mouse B16-F10 cells assessed as mitochondrial vacuolation at 2.5 uM incubated for 24 hrs by TEM analysis; type: functional, cell-based
B16-F10 [8] = experiment: Induction of ROS generation in mouse B16-F10 cells assessed as reduction in GPX1 expression level at 0.31 to 1.25 uM incubated for 24 hrs; type: functional, cell-based; conditions: dose 0.31-1.25 µM
[9] = Cytotoxicity against mouse B16-F10 cells assessed as cell viability at 40 uM incubated for 24 hrs by MTT assay; type: toxicity, cell-based; conditions: read-out: Activity
A-375 [10] = experiment: Inhibition of ROS generation in human A-375 cells at 1.25 uM preincubated with rosiglitazone for 2 hrs followed by wash out and compound addition for 1 hr by DCFH-DA staining based inverted fluorescence microscopic analysis; type: functional; set-up: scale not given: the % may be the effect or the level left
B16-F10 [11] = experiment: Induction of ROS generation in mouse B16-F10 cells assessed as reduction in PPARgamma expression level at 1.25 uM incubated for 24 hrs; type: functional, cell-based
B16-F10 [12] = experiment: Induction of ROS generation in mouse B16-F10 cells assessed as reduction in PPARgamma expression level at 1.25 uM preincubated with rosiglitazone for 24 hrs followed by compound addition for 24 hrs; type: functional, cell-based
A-375 [13] = experiment: Induction of ROS generation in human A-375 cells assessed as reduction in SOD2 expression level at 1.25 uM preincubated with rosiglitazone for 24 hrs followed by compound addition for 24 hrs; type: functional, cell-based
B16-F10 [14] = experiment: Induction of ROS generation in mouse B16-F10 cells assessed as reduction in GPX1 expression level at 1.25 uM preincubated with rosiglitazone for 24 hrs followed by compound addition for 24 hrs; type: functional, cell-based
MDA-MB-231 = experiment: Antiproliferative activity against human MDA-MB-231 cells assessed as inhibition of cell growth at 0.31 uM after 72 hrs by MTT assay; type: functional; set-up: scale not given: the % may be the effect or the level left
HeLa = experiment: Antiproliferative activity against human HeLa cells assessed as inhibition of cell growth at 0.31 uM after 72 hrs by MTT assay; type: functional; set-up: scale not given: the % may be the effect or the level left
B16-F10 [15] = experiment: Induction of cell cycle arrest in mouse B16-F10 cells assessed as accumulation of cells at G0/G1 phase incubated for 24 hrs by PI staining based flow cytometry analysis (reference value: 10.93%); type: functional
B16-F10 [16] = experiment: Inhibition of tumor metastasis in mouse B16-F10 cells assessed as reduction in wound healing after 24 hrs; type: functional, cell-based; conditions: dose 0.08-1.25 µM
B16-F10 [17] = experiment: Inhibition of cell migration in mouse B16-F10 cells after 24 hrs by transwell assay; type: functional, cell-based; conditions: dose 0.31-1.25 µM
A-375 [18] = experiment: Inhibition of Wnt/beta-catenin signaling in human A-375 cells assessed as reduction in TCF4 expression at 1.25 uM incubated for 24 hrs; type: cell-based
B16-F10 [19] = experiment: Inhibition of Wnt/beta-catenin signaling in mouse B16-F10 cells assessed as reduction in TCF4 expression at 1.25 uM incubated for 24 hrs; type: cell-based
A-375 [20] = experiment: Induction of cell cycle arrest in human A-375 cells assessed as P21 protein accumulation at 0.31 to 1.25 uM after 24 hrs by Western blotting analysis; type: functional, cell-based; conditions: dose 0.31-1.25 µM
A-375 [21] = experiment: Induction of cell cycle arrest in human A-375 cells assessed as P27 protein accumulation at 0.31 to 1.25 uM after 24 hrs by Western blotting analysis; type: functional, cell-based; conditions: dose 0.31-1.25 µM
B16-F10 [22] = experiment: Induction of cell cycle arrest in mouse B16-F10 cells assessed as reduction in Cdk4 protein level at 0.31 to 1.25 uM after 24 hrs by Western blotting analysis; type: functional, cell-based; conditions: dose 0.31-1.25 µM
B16-F10 [23] = experiment: Induction of cell cycle arrest in mouse B16-F10 cells assessed as P27 protein accumulation at 0.31 to 1.25 uM after 24 hrs by Western blotting analysis; type: functional, cell-based; conditions: dose 0.31-1.25 µM
A-375 [24] = experiment: Antitumor activity against human GFP-stained A-375 cells inoculated in zebrafish assessed as reduction in tumor growth by measuring tumor fluorescence intensity; type: functional, cell-based
[25] = Toxicity in C57BL/6J mouse inoculated with mouse B16-F10 cells assessed as reduction in body weight at 2 mg/kg, ip administered every other day and measured after 16 days; type: organism-based; conditions: in vivo, 384 h, time 16 day
[26] = Toxicity in C57BL/6J mouse inoculated with mouse B16-F10 cells assessed as effect on heart morphology at 2 mg/kg, ip administered every other day for 22 days by H and E staining based assay; type: organism-based; conditions: in vivo, 528 h, time 22 day
[27] = Toxicity in C57BL/6J mouse inoculated with mouse B16-F10 cells assessed as effect on spleen morphology at 2 mg/kg, ip administered every other day for 22 days by H and E staining based assay; type: organism-based; conditions: in vivo, 528 h, time 22 day
[28] = Toxicity in C57BL/6J mouse inoculated with mouse B16-F10 cells assessed as effect on kidney morphology at 2 mg/kg, ip administered every other day for 22 days by H and E staining based assay; type: organism-based; conditions: in vivo, 528 h, time 22 day
[29] = Renal toxicity in C57BL/6J mouse inoculated with mouse B16-F10 cells assessed as change in BUN level at 2 mg/kg, ip administered every other day for 22 days; type: organism-based; conditions: in vivo, 528 h, time 22 day
[30] = Renal toxicity in C57BL/6J mouse inoculated with mouse B16-F10 cells assessed as change in CREA level at 2 mg/kg, ip administered every other day for 22 days; type: organism-based; conditions: in vivo, 528 h, time 22 day
B16-F10 [31] = experiment: Antitumor activity against mouse B16-F10 cells inoculated in C57BL/6J mouse assessed as reduction in Ki-67 expression at 0.5 to 2 mg/kg, ip administered every other day and measured on day 22 by immunohistochemistry analysis; type: functional, organism-based; conditions: dose 0.5-2 mg/kg, time 22.0 day
B16-F10 [32] = experiment: Antitumor activity against mouse B16-F10 cells inoculated in mouse assessed as reduction in lung melanoma nodules at 2 mg/kg, ip administered every other day and measured on day 18 by immunohistochemistry analysis; type: functional, organism-based; conditions: time 18.0 day
B16-F10 [33] = experiment: Antitumor activity against mouse B16-F10 cells inoculated in mouse assessed as reduction in tumor metastasis at 2 mg/kg, ip administered every other day and measured on day 18 by H and E staining based assay; type: functional, organism-based; conditions: time 18.0 day
B16-F10 [34] = experiment: Antitumor activity against mouse B16-F10 cells inoculated in mouse assessed as reduction in MMP9 expression at 2 mg/kg, ip administered every other day and measured on day 18 by immunohistochemistry analysis; type: functional, organism-based; conditions: time 18.0 day

## CC[N+]1=C(/C=C/C2=C(Cl)C(=C/C=C3\N(CCCCCC(=O)O/C(=N/C4CCCCC4)NC4CCCCC4)c4ccccc4C3(C)C)/CCC2)C(C)(C)c2ccccc21.[Br-]
[1]
  Drug uptake: Active
[2]
  Drug uptake: Active
[3]
  Drug uptake: Active
[4]
  Drug uptake: Active
B16-F10 [5]
  Activity: Active
B16-F10 [6]
  Activity: Active
B16-F10 [7]
  Activity: Active
B16-F10 [8]
  Activity: Active
[9]
  viability at 24 h, 40 µM: 90%
A-375 [10]
  Activity: >50%
B16-F10 [11]
  Activity: Active
B16-F10 [12]
  Activity: inactive
A-375 [13]
  Activity: inactive
B16-F10 [14]
  Activity: inactive
MDA-MB-231
  Activity: 70%
HeLa
  Activity: 70%
B16-F10 [15]
  Activity: 40.75%
B16-F10 [16]
  inhibition: Dose-Dependent Effect
B16-F10 [17]
  inhibition: Dose-Dependent Effect
A-375 [18]
  inhibition: Active
B16-F10 [19]
  inhibition: Active
A-375 [20]
  Activity: Active
A-375 [21]
  Activity: Active
B16-F10 [22]
  Activity: Active
B16-F10 [23]
  Activity: Active
A-375 [24]
  Activity: Active
[25]
  Activity: Non-Toxic
[26]
  Activity: Non-Toxic
[27]
  Activity: Non-Toxic
[28]
  Activity: Non-Toxic
[29]
  Activity: Non-Toxic
[30]
  Activity: Non-Toxic
B16-F10 [31]
  Activity: Active
B16-F10 [32]
  Activity: Active
B16-F10 [33]
  Activity: Active
B16-F10 [34]
  Activity: Active
